Data reported in ChEMBL document CHEMBL3421625, “Discovery and optimization of novel antagonists to the human neurokinin-3 receptor for the treatment of sex-hormone disorders (Part I)” (J Med Chem, 2015).
Active and inactive are the calls of the source. The rule behind the calls is not given here.

What was measured:
[1] = target: Kappa-type opioid receptor (Homo sapiens) (UniProt P41145); assay: Inhibition of KOR (unknown origin) at 10 uM relative to control
[2] = target: Neuropeptide FF receptor 1 (Homo sapiens) (UniProt Q9GZQ6); assay: Inhibition of NPFF1 (unknown origin) at 10 uM relative to control
Neuropeptide FF receptor 1 (Homo sapiens), sequence (Q9GZQ6 whole entry): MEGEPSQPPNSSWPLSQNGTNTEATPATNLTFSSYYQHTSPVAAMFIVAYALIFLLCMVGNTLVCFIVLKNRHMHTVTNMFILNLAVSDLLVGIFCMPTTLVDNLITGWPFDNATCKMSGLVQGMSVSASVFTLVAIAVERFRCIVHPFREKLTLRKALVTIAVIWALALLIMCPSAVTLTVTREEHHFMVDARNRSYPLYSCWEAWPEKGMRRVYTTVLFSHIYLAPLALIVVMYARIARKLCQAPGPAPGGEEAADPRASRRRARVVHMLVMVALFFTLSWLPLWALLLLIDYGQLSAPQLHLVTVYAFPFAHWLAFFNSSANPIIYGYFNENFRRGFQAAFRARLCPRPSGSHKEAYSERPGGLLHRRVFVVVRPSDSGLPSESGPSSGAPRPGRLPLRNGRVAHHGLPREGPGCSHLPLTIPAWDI

[3] = Apparent permeability across apical to basolateral side in human Caco2 cells in presence of 0.1% bovine serum albumin; conditions: Caco-2
[4] = Apparent permeability across basolateral to apical side in human Caco2 cells in presence of 0.1% bovine serum albumin; conditions: Caco-2
[5] = system: Cynomolgus monkey; assay: In vivo inhibition of NK3R in castrated cynomolgus monkey assessed as decrease in plasma luteinizing hormone level at 20 mg/kg, po measured at 90 mins relative to control; type: functional; conditions: Macaca fascicularis, 1.5 h
[6] = Volume of distribution at steady state in castrated cynomolgus monkey at 10 mg/kg, iv by LC-MS/MS analysis; conditions: male, in vivo
[7] = system: Cynomolgus monkey; assay: Unbound Cmax in castrated cynomolgus monkey at 5 mg/kg, po by LC-MS/MS analysis; type: ADME, organism-based, Macaca fascicularis; set-up: dose 5 mg/kg, route oral; conditions: in vivo
[8] = system: Cynomolgus monkey; assay: Unbound Cmax in castrated cynomolgus monkey at 20 mg/kg, po by LC-MS/MS analysis; type: ADME, organism-based, Macaca fascicularis; set-up: dose 20 mg/kg, route oral; conditions: in vivo
[9] = Total systemic clearance in castrated cynomolgus monkey at 10 mg/kg, iv by LC-MS/MS analysis; type: ADME, organism-based, Macaca fascicularis; set-up: dose 10 mg/kg, route intravenous; conditions: male, in vivo
[10] = Tmax in castrated cynomolgus monkey at 20 mg/kg, po by LC-MS/MS analysis; type: ADME, organism-based, Macaca fascicularis; set-up: dose 20 mg/kg, route oral; conditions: male, in vivo
[11] = system: Cynomolgus monkey; assay: Unbound AUC in castrated cynomolgus monkey at 20 mg/kg, po by LC-MS/MS analysis; type: ADME, organism-based, Macaca fascicularis; set-up: dose 20 mg/kg, route oral; conditions: in vivo
[12] = system: Cynomolgus monkey; assay: Unbound AUC in castrated cynomolgus monkey at 10 mg/kg, iv by LC-MS/MS analysis; type: ADME, organism-based, Macaca fascicularis; set-up: dose 10 mg/kg, route intravenous; conditions: in vivo
[13] = system: Rattus norvegicus; assay: Hepatotoxicity in Sprague-Dawley rat assessed as effect on ALT level at 30 mg/kg, po bid administered for 5 days; type: toxicity, organism-based; set-up: dose 30 mg/kg, route oral; conditions: in vivo, 120 h
[14] = system: Rattus norvegicus; assay: Hepatotoxicity in Sprague-Dawley rat assessed as effect on AST level at 30 mg/kg, po bid administered for 5 days; type: toxicity, organism-based; set-up: dose 30 mg/kg, route oral; conditions: in vivo, 120 h
[15] = system: Rattus norvegicus; assay: Hepatotoxicity in Sprague-Dawley rat assessed as effect on bilirubin level at 30 mg/kg, po bid administered for 5 days; type: toxicity, organism-based; set-up: dose 30 mg/kg, route oral; conditions: in vivo, 120 h
[16] = system: Rattus norvegicus; assay: Drug uptake in Sprague-Dawley rat at 30 mg/kg, po bid administered for 5 days; type: ADME, organism-based; set-up: dose 30 mg/kg, route oral; conditions: in vivo, 120 h
[17] = system: Cynomolgus monkey; assay: In vivo inhibition of NK3R in castrated cynomolgus monkey assessed as decrease in plasma luteinizing hormone level at 20 mg/kg, po measured at 90 to 300 mins; type: functional, organism-based; set-up: dose 20 mg/kg; conditions: Macaca fascicularis
[18] = system: Cynomolgus monkey; assay: In vivo inhibition of NK3R in castrated cynomolgus monkey assessed as decrease in plasma luteinizing hormone level at 20 mg/kg, po measured at 480 mins; type: functional, organism-based; set-up: dose 20 mg/kg; conditions: Macaca fascicularis
[19] = target: Voltage-gated inwardly rectifying potassium channel KCNH2 (Homo sapiens, UniProt Q12809)
Voltage-gated inwardly rectifying potassium channel KCNH2, sequence (Q12809 whole entry): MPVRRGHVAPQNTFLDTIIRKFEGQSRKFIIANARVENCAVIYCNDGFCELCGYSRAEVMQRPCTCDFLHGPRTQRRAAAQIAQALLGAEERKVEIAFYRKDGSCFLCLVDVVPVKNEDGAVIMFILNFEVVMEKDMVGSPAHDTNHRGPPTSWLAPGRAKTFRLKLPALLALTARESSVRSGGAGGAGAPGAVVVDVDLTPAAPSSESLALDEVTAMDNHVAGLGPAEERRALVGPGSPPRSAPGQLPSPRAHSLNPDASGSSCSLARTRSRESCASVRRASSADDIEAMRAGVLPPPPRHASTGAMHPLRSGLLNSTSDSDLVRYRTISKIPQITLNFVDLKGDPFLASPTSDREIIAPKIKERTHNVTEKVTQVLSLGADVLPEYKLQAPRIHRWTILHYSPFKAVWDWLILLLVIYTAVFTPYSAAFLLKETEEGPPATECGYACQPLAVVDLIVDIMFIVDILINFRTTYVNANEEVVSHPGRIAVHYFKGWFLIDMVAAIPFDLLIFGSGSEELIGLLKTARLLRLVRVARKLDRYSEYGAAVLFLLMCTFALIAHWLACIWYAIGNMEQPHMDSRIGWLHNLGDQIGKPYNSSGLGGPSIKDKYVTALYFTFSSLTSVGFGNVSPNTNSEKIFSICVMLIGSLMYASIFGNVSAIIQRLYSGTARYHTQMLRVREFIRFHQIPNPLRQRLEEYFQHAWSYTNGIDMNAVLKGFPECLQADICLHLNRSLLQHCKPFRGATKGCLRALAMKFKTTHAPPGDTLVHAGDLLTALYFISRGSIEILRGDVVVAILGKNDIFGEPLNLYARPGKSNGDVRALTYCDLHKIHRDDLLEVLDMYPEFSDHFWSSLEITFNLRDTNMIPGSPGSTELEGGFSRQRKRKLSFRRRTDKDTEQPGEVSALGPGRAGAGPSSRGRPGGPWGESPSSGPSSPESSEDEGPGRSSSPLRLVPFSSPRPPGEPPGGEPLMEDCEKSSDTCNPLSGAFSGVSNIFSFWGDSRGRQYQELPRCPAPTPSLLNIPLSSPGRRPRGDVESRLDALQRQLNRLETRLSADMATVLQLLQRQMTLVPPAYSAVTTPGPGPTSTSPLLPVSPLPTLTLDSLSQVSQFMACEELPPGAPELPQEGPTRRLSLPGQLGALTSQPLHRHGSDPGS
Description: Inhibition of human ERG expressed in HEK293 cells after 5 mins by patch-clamp assay

[20] = target: T1, Substance-K receptor (Homo sapiens, UniProt P21452); assay: Displacement of [125I]-neurokinin A from human NK2R after 90 mins by scintillation counting analysis
T1 sequence (P21452 whole entry): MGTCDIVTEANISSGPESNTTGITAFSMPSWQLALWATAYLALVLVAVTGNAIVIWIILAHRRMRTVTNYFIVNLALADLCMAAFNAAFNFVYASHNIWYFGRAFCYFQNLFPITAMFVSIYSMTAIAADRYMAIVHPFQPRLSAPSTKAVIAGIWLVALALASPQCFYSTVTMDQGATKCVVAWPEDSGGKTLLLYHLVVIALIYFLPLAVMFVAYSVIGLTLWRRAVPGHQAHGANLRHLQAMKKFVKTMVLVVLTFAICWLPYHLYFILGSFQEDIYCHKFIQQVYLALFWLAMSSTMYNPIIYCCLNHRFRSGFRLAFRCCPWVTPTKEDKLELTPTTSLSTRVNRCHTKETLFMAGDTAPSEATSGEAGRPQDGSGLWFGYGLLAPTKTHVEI

[21] = system: Rattus norvegicus; assay: In vivo inhibition of NK3R in castrated Sprague-Dawley rat assessed as decrease in serum luteinizing hormone level at 10 mg/kg, iv by radioimmunoassay relative to control; type: functional
[22] = target: T2, Neuromedin-K receptor (Homo sapiens, UniProt P29371)
T2 sequence (P29371 whole entry): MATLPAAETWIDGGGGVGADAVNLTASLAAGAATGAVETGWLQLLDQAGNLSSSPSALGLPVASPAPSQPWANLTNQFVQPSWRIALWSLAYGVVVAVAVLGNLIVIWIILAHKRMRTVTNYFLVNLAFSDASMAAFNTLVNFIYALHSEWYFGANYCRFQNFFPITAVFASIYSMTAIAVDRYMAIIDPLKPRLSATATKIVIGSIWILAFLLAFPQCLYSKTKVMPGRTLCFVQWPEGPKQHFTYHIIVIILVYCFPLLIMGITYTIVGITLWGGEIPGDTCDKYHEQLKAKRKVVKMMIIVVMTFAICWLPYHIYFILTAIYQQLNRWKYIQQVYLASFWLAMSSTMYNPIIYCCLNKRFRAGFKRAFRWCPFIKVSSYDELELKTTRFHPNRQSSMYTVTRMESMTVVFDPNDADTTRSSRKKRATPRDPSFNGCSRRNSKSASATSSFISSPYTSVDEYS

[23] = target: Substance-P receptor (Homo sapiens, UniProt P25103)
Substance-P receptor, sequence (P25103 whole entry): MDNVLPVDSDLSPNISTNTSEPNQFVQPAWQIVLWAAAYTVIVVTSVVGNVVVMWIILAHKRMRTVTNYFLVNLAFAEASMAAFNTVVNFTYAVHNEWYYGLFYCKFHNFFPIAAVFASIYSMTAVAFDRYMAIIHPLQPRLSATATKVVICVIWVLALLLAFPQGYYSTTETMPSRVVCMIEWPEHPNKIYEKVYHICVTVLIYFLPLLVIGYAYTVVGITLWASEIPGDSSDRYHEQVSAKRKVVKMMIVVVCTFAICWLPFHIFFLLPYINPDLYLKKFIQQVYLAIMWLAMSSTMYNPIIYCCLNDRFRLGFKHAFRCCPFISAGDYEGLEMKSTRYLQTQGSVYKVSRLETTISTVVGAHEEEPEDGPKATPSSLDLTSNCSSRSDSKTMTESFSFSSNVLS
Description: Displacement of [3H]-Substance P from human NK1R after 90 mins by scintillation counting analysis

[24] = in vivo; conditions: Sprague-Dawley, rat, iv, 1 mg/kg
[25] = in vivo; conditions: Sprague-Dawley, rat, po, 3 mg/kg
[26] = target: T2, Neuromedin-K receptor; assay: biochemical
Description: Displacement of [3H]-SB222200 from recombinant human NK3R expressed in CHO cell membranes after 90 mins by scintillation counting analysis

Kappa-type opioid receptor (Homo sapiens), sequence (P41145 whole entry): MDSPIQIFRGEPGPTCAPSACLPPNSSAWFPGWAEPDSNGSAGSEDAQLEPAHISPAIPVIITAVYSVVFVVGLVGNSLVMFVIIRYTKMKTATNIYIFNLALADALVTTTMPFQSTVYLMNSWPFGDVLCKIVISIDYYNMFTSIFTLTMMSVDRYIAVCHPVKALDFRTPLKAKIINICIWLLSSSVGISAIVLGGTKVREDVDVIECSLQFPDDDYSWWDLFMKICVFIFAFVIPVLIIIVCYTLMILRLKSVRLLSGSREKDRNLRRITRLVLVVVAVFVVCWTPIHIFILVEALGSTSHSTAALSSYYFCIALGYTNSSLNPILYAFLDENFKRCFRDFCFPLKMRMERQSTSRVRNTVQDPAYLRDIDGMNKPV

SMILES: Cc1nc(-c2nnc3n2CCN(C(=O)c2ccc(-c4cccs4)cc2)[C@@H]3C)cs1
- inhibition [1]: 25%
- inhibition [2]: 18%
- Papp A→B [3]: 48.2 ×10⁻⁶ cm/s
- Papp B→A [4]: 52.9 ×10⁻⁶ cm/s
- inhibition in vivo at 20 mg/kg [5]: 40%
- Vd [6]: 1.52 L/kg
- fCmax [7]: 17.9 nM
- fCmax [8]: 237 nM
- clearance [9]: 16.5 mL/min/kg
- Tmax [10]: 1 h
- fAUC [11]: 0.526 µM·h
- fAUC [12]: 1.055 µM·h
- Activity [13]: Non-toxic
- Activity [14]: Non-toxic
- Activity [15]: Non-toxic
- Drug uptake [16]: Not Active
- inhibition [17]: Active
- inhibition [18]: inactive
- IC50 [19]: 24000 nM

SMILES: C[C@@H]1c2nnc(-c3csc(-c4ccc(F)cc4F)n3)n2CCN1C(=O)c1ccc(-c2cccs2)cc1
- Ki [20]: 794 nM
- inhibition in vivo at 10 mg/kg [21]: 50%
- IC50 [22]: 20 nM
- Ki [23]: 1260 nM
- half-life [24]: 5.35 h
- bioavailability [25]: 17%
- Ki [26]: 2 nM
